This is an account of results in patent US11358949B2, “Carbamate and urea compounds as multikinase inhibitors” (ANGEX PHARMACEUTICAL, INC., priority 2017, dated 2022).

Where only a bound is given, the exact number is not on record here.

One assay deals with T1, AXL (Homo sapiens, UniProt P30530).
T1 sequence (P30530 26-894): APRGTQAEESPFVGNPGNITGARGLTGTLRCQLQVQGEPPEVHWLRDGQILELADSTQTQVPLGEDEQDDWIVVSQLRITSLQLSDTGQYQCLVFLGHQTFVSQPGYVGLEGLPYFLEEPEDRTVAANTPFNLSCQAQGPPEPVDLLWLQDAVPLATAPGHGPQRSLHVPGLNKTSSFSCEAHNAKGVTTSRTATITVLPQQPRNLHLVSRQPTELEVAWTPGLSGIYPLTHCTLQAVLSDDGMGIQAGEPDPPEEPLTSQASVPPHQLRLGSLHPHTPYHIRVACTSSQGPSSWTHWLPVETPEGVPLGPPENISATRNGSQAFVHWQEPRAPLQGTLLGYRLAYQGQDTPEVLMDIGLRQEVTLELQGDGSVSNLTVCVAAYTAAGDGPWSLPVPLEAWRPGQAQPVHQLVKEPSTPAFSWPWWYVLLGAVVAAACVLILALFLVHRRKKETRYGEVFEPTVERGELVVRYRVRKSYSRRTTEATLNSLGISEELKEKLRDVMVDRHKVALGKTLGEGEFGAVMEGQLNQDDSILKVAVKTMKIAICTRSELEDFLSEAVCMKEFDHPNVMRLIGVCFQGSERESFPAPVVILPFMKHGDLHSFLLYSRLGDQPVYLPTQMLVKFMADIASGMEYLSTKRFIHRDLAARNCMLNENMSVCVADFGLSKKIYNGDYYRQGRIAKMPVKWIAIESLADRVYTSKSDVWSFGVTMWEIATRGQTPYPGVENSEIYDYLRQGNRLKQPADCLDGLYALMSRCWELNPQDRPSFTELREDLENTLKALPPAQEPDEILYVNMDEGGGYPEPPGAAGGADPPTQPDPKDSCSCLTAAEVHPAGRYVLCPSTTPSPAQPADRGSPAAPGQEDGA
The assay can be described thus: HotSpot Kinase Assay, AXL.

A further assay has as its target FMS (Homo sapiens, UniProt P07333). The assay can be described thus: HotSpot Kinase Assay, FMS.
Another assay has as its target DDR1 (Homo sapiens, UniProt Q08345). As to the kind of experiment: HotSpot Kinase Assay, DDR1.
For another assay, the target named is c-Kit (Homo sapiens, UniProt P10721). As to the kind of experiment: HotSpot Kinase Assay, c-Kit.
Chain of c-Kit (P10721 26-976): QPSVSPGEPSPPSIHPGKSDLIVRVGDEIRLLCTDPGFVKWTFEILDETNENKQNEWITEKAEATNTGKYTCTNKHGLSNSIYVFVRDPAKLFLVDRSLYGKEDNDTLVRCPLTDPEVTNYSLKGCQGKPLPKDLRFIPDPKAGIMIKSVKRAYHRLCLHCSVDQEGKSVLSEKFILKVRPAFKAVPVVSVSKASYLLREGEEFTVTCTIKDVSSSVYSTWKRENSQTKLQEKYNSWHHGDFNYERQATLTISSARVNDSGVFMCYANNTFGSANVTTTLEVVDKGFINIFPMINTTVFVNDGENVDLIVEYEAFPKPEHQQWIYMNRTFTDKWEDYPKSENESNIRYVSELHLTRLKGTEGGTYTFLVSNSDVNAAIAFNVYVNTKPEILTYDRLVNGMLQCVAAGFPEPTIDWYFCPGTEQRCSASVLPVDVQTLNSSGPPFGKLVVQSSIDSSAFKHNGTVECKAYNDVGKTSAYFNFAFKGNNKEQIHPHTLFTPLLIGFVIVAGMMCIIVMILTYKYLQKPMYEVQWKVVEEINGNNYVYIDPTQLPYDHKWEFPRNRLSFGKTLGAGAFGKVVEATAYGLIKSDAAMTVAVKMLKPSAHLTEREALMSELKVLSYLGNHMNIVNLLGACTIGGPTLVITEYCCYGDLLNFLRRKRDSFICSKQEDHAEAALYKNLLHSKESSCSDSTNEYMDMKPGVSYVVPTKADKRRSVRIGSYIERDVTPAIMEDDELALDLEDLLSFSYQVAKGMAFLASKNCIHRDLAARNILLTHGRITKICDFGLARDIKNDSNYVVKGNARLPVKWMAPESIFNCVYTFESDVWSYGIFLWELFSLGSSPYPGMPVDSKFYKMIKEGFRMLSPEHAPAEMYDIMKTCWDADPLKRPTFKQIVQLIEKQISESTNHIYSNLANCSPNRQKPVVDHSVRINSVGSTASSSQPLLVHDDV
Another assay has as its target T2, c-MER (Homo sapiens, UniProt Q12866).
T2 sequence (Q12866 21-999): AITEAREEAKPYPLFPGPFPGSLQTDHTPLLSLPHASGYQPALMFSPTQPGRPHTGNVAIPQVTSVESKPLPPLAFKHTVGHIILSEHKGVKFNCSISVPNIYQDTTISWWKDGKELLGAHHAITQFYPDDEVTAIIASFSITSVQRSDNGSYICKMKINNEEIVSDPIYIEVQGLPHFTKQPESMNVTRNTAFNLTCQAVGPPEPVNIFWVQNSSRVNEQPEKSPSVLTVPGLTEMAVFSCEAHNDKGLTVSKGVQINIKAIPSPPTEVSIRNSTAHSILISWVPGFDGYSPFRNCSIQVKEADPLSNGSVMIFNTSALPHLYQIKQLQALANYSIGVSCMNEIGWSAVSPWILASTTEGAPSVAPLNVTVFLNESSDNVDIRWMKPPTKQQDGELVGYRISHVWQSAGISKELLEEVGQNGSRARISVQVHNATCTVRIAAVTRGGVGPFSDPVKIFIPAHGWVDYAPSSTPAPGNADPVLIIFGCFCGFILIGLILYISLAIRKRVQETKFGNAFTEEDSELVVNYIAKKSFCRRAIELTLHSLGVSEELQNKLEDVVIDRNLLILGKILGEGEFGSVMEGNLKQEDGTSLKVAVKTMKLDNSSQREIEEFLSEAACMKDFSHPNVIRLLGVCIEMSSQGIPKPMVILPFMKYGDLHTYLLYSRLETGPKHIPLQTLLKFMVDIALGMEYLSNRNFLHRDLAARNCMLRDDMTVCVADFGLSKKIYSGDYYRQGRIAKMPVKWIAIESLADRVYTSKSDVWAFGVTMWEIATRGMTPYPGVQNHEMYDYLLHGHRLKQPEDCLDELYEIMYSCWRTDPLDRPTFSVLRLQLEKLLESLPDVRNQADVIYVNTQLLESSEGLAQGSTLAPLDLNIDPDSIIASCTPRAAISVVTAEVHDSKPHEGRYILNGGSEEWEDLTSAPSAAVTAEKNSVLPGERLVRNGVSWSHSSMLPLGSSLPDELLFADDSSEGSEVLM
The assay can be described thus: HotSpot Kinase Assay, c-MER.

In the next assay the target is c-MET (Homo sapiens, UniProt P08581). The assay can be described thus: HotSpot Kinase Assay, c-MET.
The target in another assay is EPHA2 (Homo sapiens, UniProt P29317). The assay can be described thus: HotSpot Kinase Assay, EPHA2.
Chain of EPHA2 (P29317 24-976): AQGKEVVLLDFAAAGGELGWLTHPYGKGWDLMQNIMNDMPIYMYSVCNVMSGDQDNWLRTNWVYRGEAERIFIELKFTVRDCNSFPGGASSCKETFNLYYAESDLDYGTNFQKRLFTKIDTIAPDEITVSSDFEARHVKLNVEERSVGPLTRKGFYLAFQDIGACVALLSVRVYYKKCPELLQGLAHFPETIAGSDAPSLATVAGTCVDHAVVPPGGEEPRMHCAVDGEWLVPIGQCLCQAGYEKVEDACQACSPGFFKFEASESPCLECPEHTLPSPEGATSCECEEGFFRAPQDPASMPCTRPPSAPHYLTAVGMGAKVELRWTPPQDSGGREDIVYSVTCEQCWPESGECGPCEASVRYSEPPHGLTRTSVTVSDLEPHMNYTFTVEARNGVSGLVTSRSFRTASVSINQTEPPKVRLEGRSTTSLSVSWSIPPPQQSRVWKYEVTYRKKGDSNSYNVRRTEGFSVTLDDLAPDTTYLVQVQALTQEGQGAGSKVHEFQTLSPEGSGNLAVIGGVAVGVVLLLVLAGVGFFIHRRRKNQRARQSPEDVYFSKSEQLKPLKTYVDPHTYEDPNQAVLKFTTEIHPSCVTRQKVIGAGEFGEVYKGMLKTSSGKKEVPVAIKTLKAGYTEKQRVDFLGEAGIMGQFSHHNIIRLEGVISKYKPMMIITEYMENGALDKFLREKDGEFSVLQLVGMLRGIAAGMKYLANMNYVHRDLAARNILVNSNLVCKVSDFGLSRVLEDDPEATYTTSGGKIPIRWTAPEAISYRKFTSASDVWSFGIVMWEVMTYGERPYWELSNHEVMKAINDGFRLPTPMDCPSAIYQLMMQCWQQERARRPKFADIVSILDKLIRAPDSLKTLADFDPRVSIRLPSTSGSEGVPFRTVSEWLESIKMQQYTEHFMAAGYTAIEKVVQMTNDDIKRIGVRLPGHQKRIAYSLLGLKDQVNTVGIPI
The target of another assay is LOK/STK10 (Homo sapiens, UniProt O94804). The assay can be described thus: HotSpot Kinase Assay, LOK/STK10.
Chain of LOK/STK10 (O94804 whole entry): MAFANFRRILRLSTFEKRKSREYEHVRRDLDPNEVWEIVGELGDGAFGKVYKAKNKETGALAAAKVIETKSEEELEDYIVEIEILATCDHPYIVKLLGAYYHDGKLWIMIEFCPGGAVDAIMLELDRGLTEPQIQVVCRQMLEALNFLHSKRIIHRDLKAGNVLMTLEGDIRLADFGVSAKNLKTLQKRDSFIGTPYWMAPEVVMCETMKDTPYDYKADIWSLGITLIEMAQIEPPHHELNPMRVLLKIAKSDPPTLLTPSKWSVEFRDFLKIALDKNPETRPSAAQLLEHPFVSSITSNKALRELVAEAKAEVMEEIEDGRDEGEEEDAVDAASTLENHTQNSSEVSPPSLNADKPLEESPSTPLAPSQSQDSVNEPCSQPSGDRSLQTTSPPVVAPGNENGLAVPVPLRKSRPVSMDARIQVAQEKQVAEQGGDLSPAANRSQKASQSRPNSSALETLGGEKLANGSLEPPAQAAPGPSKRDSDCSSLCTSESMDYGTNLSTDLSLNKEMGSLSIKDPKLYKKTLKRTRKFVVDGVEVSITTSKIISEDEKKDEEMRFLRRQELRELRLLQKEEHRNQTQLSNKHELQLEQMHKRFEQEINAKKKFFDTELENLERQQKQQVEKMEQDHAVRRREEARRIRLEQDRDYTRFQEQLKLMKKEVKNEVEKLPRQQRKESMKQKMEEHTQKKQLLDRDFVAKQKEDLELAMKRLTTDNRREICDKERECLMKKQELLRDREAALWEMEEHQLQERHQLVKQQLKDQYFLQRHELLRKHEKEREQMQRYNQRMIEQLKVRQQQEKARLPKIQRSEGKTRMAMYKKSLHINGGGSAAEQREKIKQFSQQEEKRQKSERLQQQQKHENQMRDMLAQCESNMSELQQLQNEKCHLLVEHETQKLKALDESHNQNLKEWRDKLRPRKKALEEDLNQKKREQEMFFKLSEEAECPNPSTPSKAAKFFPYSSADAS
The target of another assay is T3, TYRO3/SKY (Homo sapiens, UniProt Q06418).
T3 sequence (Q06418 41-890): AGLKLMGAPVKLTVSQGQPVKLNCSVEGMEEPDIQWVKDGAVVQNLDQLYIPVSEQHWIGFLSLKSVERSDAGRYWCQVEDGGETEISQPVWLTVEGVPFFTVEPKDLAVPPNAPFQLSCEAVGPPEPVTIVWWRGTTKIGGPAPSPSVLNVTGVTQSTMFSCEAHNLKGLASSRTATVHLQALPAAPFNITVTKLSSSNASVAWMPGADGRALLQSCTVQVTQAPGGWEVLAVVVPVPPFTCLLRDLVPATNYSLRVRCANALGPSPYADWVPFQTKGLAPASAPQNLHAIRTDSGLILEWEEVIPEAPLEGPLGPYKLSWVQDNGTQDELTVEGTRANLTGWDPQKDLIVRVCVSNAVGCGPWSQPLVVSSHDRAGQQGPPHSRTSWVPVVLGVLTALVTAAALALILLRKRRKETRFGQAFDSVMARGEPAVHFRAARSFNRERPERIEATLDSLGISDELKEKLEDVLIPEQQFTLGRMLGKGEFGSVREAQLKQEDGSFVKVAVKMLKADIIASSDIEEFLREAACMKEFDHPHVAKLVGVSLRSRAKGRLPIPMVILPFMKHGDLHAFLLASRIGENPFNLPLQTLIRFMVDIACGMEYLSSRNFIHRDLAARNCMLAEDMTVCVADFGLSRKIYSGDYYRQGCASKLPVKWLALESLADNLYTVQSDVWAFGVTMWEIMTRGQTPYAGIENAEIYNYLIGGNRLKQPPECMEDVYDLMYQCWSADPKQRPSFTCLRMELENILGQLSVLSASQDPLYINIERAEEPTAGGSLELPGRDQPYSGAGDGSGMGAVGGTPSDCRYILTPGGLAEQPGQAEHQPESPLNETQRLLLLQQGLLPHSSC
As to the kind of experiment: HotSpot Kinase Assay, TYRO3/SKY.

The target in a further assay is KDR/VEGFR2 (Homo sapiens, UniProt P35968). The assay can be described thus: HotSpot Kinase Assay, KDR/VEGFR2.

Chain of DDR1 (Q08345 19-913): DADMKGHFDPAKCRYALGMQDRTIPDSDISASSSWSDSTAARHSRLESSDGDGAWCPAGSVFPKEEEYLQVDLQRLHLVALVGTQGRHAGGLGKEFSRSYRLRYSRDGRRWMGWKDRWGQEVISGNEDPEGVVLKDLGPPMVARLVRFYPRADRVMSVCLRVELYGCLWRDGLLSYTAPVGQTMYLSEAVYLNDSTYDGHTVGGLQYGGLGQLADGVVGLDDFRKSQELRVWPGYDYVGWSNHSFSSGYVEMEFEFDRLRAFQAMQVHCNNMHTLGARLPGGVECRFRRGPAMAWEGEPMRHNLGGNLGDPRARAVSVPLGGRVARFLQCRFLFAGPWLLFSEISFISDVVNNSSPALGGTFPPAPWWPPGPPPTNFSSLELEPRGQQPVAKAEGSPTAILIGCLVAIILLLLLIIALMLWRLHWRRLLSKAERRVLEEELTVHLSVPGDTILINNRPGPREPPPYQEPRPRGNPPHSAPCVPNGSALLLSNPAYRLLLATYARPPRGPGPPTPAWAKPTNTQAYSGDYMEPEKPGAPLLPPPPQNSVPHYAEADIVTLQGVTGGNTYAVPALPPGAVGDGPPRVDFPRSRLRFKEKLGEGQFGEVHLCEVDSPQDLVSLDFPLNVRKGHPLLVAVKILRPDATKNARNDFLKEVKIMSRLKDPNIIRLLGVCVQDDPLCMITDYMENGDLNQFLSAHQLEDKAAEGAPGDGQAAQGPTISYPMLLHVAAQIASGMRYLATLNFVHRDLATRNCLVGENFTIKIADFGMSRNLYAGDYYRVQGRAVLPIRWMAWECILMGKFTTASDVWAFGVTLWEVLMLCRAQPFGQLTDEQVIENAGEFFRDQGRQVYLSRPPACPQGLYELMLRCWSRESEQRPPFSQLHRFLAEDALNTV
Chain of FMS (P07333 20-972): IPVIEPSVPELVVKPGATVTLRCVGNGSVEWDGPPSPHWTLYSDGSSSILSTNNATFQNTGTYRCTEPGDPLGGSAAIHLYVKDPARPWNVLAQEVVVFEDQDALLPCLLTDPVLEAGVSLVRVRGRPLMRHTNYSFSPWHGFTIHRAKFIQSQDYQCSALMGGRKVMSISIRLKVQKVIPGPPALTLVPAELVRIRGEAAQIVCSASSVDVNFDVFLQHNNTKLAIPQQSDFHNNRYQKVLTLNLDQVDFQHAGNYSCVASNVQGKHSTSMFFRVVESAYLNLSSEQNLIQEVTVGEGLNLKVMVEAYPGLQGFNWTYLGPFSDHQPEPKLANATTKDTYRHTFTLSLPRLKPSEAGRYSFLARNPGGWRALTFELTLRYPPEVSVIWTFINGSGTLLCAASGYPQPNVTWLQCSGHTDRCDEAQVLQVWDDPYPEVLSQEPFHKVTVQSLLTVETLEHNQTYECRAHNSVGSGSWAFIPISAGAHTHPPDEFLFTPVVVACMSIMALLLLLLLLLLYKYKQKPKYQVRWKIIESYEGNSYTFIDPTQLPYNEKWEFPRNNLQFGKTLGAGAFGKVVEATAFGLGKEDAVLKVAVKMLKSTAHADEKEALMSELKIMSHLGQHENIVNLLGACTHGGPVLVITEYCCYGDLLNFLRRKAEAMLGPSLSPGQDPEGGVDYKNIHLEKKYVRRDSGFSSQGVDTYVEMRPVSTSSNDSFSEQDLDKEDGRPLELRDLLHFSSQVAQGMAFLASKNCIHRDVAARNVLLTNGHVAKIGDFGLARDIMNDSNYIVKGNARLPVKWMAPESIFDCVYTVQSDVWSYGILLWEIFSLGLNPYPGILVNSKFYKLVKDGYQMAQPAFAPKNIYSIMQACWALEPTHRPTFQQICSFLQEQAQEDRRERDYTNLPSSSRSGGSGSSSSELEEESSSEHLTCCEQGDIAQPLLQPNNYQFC
Experimental for AXL: (§1) Specifically, for each reaction, kinase and substrate were mixed in a pH 7.5 buffer containing 20 mM HEPES, 10 mM MgCl2, 1 mM EGTA [Ethylene glycol-bis(2-aminoethylether)-N,N,N′,N′-tetraacetic acid], 0.02% Brij35, 0.02 mg/mL BSA (Bovine Serum Albumin), 0.1 mM Na3VO4, 2 mM DTT, and 1% DMSO. Compounds were then added to each reaction mixture. After a 20-min incubation, ATP (Sigma-Aldrich) and [γ-^33P] ATP (PerkinElmer) were added at a final total concentration of 100 μM. Reactions were carried out at room temperature for 2 hours and spotted onto P81 ion exchange cellulose chromatography paper (Whatman). […] The percent remaining kinase activity relative to a vehicle-containing (DMSO) kinase reaction was calculated for each kinase/inhibitor pair. […] IC50 values were calculated using Prism 5 (GraphPad).
Experimental for DDR1: as §1
Experimental for KDR/VEGFR2: as §1
Experimental for LOK/STK10: as §1
Experimental for TYRO3/SKY: as §1
Experimental for c-MER: as §1
Experimental for c-MET: as §1

By IC50 is commonly meant the midpoint of a concentration-inhibition curve. Lower therefore signals greater potency. Regarding `COc1cc2c(Oc3ccc(NC(=O)C4(C(=O)Nc5ccc(F)cc5)CC4)cc3)ccnc2cc1OC(=O)N1CC[C@@H](O)C1` [Compound 2-4], the IC50 at AXL is < 100 nM; on FMS it was 100 to 1000 nM; at DDR1, < 100 nM; at c-Kit, < 100 nM; on c-MER, < 100 nM; at c-MET, < 100 nM. For the same compound, the IC50 against EPHA2 was 100 to 1000 nM; at LOK/STK10, 100 to 1000 nM; at TYRO3/SKY, > 1000 nM; on KDR/VEGFR2, > 1000 nM.

Regarding `COc1cc2c(Oc3ccc(NC(=O)C4(C(=O)Nc5ccc(F)cc5)CC4)cc3)ccnc2cc1OC(=O)N1CC[C@H](O)C1` [Compound 2-5], the IC50 was < 100 nM against AXL; 100 to 1000 nM on FMS; < 100 nM on DDR1; < 100 nM against c-Kit; < 100 nM at c-MER; < 100 nM against c-MET. Moreover, the IC50 on EPHA2 was 100 to 1000 nM; on LOK/STK10, 100 to 1000 nM; against TYRO3/SKY it was > 1000 nM; on KDR/VEGFR2, > 1000 nM.

Take `COc1cc2c(Oc3ccc(NC(=O)C4(C(=O)Nc5ccc(F)cc5)CC4)cc3)ccnc2cc1OC(=O)N1C[C@H]2C[C@@H]1CN2C` [Compound 2-6]: the IC50 on AXL, on FMS, on DDR1, against c-Kit, against c-MER and against c-MET was < 100 nM in each case. For the same compound, the IC50 on EPHA2 was < 100 nM; at LOK/STK10, 100 to 1000 nM; at TYRO3/SKY, 100 to 1000 nM; against KDR/VEGFR2, 100 to 1000 nM.

Regarding `COc1cc2c(Oc3ccc(NC(=O)C4(C(=O)Nc5ccc(F)cc5)CC4)cc3)ccnc2cc1OC(=O)N1C[C@@H]2C[C@H]1CN2C` [Compound 2-7], the IC50 at AXL, at FMS, at DDR1, against c-Kit, on c-MER and at c-MET was < 100 nM each time. The IC50 on EPHA2 is < 100 nM; against LOK/STK10 it was 100 to 1000 nM; against TYRO3/SKY it was 100 to 1000 nM; on KDR/VEGFR2 it was 100 to 1000 nM.

As to `COc1cc2c(Oc3ccc(NC(=O)C4(C(=O)Nc5ccc(F)cc5)CC4)cc3F)ccnc2cc1OC(=O)N1CCN(C)C[C@H]1C` [Compound 3-5, 4-(2-fluoro-4-(1-((4-fluorophenyl)carbamoyl)cyclopropane-1-carboxamido)phenoxy)-6-methoxyquinolin-7-yl (R)-2,4-dimethylpiperazine-1-carboxylate], the IC50 is < 100 nM against AXL; 100 to 1000 nM on FMS; < 100 nM against DDR1; < 100 nM on c-Kit; < 100 nM on c-MER; < 100 nM against c-MET. Further, the IC50 on EPHA2 was < 100 nM; against LOK/STK10, 100 to 1000 nM; against TYRO3/SKY it was 100 to 1000 nM; at KDR/VEGFR2, < 100 nM.

With `COc1cc2c(Oc3ccc(NC(=O)C4(C(=O)Nc5ccc(F)cc5)CC4)cc3F)ccnc2cc1OC(=O)N1CCN(C)C[C@@H]1C` [Compound 3-6], the IC50 on AXL is < 100 nM; against FMS, 100 to 1000 nM; against DDR1 it was < 100 nM; at c-Kit, 100 to 1000 nM; against c-MER it was < 100 nM; against c-MET, < 100 nM. Also, the IC50 on EPHA2 is < 100 nM; against LOK/STK10, 100 to 1000 nM; on TYRO3/SKY, 100 to 1000 nM; against KDR/VEGFR2, 100 to 1000 nM.

In the case of `COc1cc2nccc(Oc3ccc(NC(=O)C4(C(=O)Nc5ccc(F)cc5)CC4)cc3)c2cc1OC(=O)N1CCN(C)CC1` [Compound 5-10], the IC50 against AXL, at FMS, against DDR1, at c-Kit, against c-MER and on c-MET was < 100 nM throughout. The IC50 against EPHA2 is < 100 nM; on LOK/STK10, 100 to 1000 nM; on TYRO3/SKY, < 100 nM; against KDR/VEGFR2, < 100 nM.

As to `COc1cc2c(Oc3ccc(NC(=O)C4(C(=O)Nc5ccc(F)cc5)CC4)cc3)ccnc2cc1OC(=O)N1[C@H](C)CNC[C@@H]1C` [Compound 6-2], the IC50 on AXL was < 100 nM; at FMS, 100 to 1000 nM; against DDR1, < 100 nM; on c-Kit, < 100 nM; against c-MER, 100 to 1000 nM; against c-MET, 100 to 1000 nM. Also, the IC50 at EPHA2, on LOK/STK10, against TYRO3/SKY and on KDR/VEGFR2 was 100 to 1000 nM throughout.

In the case of `COc1cc2c(Oc3ccc(NC(=O)C4(C(=O)Nc5ccc(F)cc5)CC4)cc3)ccnc2cc1OC(=O)N1[C@H](C)CN(C)C[C@@H]1C` [Compound 6-3], the IC50 against AXL was < 100 nM; against FMS it was 100 to 1000 nM; at DDR1 it was < 100 nM; at c-Kit, < 100 nM; on c-MER, < 100 nM; against c-MET it was 100 to 1000 nM. Moreover, the IC50 on EPHA2, against LOK/STK10, on TYRO3/SKY and against KDR/VEGFR2 was 100 to 1000 nM in each case.
